Values joined by “and” are separate entries in the source; they are usually repeats but may differ in a detail not shown here. Equal values may be shown once.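 Where inhibition never reached the appropriate level, the endpoint shown equals the highest concentration tested. Otherwise, values were interpolated linearly from a five-concentration, 48-hour dose response in 96-well plates. GI50: concentration for 50% inhibition of growth. TGI marks complete inhibition of growth.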

Holding throughout (experiment): DTP human tumour cell line panel, 48 h
Assay [1] deals with 786-0 renal.
The subject of assay [2] is A549 NSCLC.
Assay [3] deals with HCC-2998 colon.
The test system of assay [4] is MALME-3M melanoma.
The test system of assay [5] is MDA-MB-231 breast.
Assay [6] deals with NCI-H226 lung.
Assay [7] has as its system NCI/ADR-RES ovarian.
The test system of assay [8] is OVCAR-3 ovarian.
The test system of assay [9] is TK-10 renal.
The subject of assay [10] is U251 CNS.

Broadly, the GI50 is the concentration at which growth is held to half of that of the control. For orientation: TGI means the concentration giving total growth inhibition. Lower therefore signals greater sensitivity of the cells. With `Cc1cnc(-c2ccc(-c3ccc(NC(=O)Nc4cccc(C(F)(F)F)c4)cc3F)c3c2C(=O)NC3)[nH]1`, the GI50 in assay [1] was 16.8 µM; in [2], 7.49 µM; in assay [3], 28.2 µM; in [4] it was 1.47 µM; in assay [5], 26 µM; in [6], 0.933 µM. The GI50 was 31.4 µM in assay [7], 14.4 µM in assay [8], 15.5 µM in assay [9] and 11.3 µM in assay [10]. The TGI in assay [1] is greater than 51.8 µM; in [2] it was greater than 47.9 µM; in assay [3], greater than 59.2 µM; in assay [4] it was 23.1 µM; in assay [5], greater than 57.3 µM; in assay [6] it was greater than 42.7 µM. Besides, the TGI in assay [7] is greater than 100 µM; in assay [8], 36.7 µM; in [9] it was greater than 58.5 µM; in [10], 32 µM.

Turning to `COC(=O)c1cc2c([nH]c3ccccc32)c(-c2nc3ccccc3cc2CO)n1`, the GI50 in [1] was 6.2 µM; in assay [2], greater than 100 µM; in assay [3], greater than 100 µM; in [4], greater than 100 µM; in [5], 40 µM; in assay [6], greater than 100 µM. For the same compound, the GI50 in assay [7] is greater than 100 µM; in [8], greater than 100 µM; in assay [9], greater than 100 µM; in assay [10] it was 7.1 µM. The TGI in assay [1], in [2], in assay [3], in assay [4], in assay [5] and in assay [6] was greater than 100 µM in each case. In addition, the TGI in [7], in assay [8], in [9] and in assay [10] was greater than 100 µM in each case.

For `CCCCNP1(NCCCC)=NP(NCCCC)(NCCCC)=NP(NCCCC)(NCCCC)=NP(NCCCC)(NCCCC)=N1`, the GI50 is 1.34 µM in assay [1]; 0.593 µM in [2]; 0.304 µM in [3]; 0.232 µM in assay [4]; 0.418 µM in [5]; 1.72 µM in [6]. Also, the GI50 was 73.3 µM in assay [7], 0.243 µM in [8], 0.933 µM in [9] and 0.296 µM in assay [10]. In addition, the TGI in [1] came out at 5.26 µM; in assay [2] it was 4.03 µM; in assay [3], 3.7 µM; in assay [4], 2.6 µM; in assay [5], 4.08 µM; in assay [6], 7.91 µM. The TGI is greater than 100 µM in assay [7], 0.871 µM in [8], 13 µM in assay [9] and 3.81 µM in assay [10].

As for `C=C1C(=O)O[C@H]2[C@H]1CC/C(CNC(=O)C(C)c1ccc(CC(C)C)cc1)=C\CC[C@@]1(C)O[C@@H]21` (stereo partly specified), the GI50 is 1.76 µM in [1]; 2.37 µM in assay [2]; 1.83 µM in assay [3]; 1.71 µM in assay [4]; 1.96 µM in assay [5]; 1.66 µM in [6]. In addition, the GI50 was 2.07 µM in assay [7], 1.54 µM in assay [8], 1.66 µM in assay [9] and 1.67 µM in assay [10]. The TGI was 3.36 µM in assay [1]; 6.72 µM in [2]; 3.38 µM in assay [3]; 3.36 µM in assay [4]; 4 µM in [5]; 3.27 µM in assay [6]. In addition, the TGI in [7] worked out at 5.47 µM; in [8], 2.95 µM; in [9], 3.02 µM; in assay [10] it was 3.1 µM.

Turning to `CC(=O)OCC1OC([S-])C(OC(C)=O)C(OC(C)=O)C1OC(C)=O.[Au+].c1ccc(CN2[CH-]N(Cc3ccccc3)C(c3ccccc3)=C2c2ccccc2)cc1`, the GI50 was 1.84 µM and 0.384 µM in assay [1]; 1.64 µM and 0.625 µM in assay [3]; 1.93 µM and 0.278 µM in assay [4]; 1.84 µM and 0.281 µM in assay [5]; 3.5 µM and 0.655 µM in assay [6]; 6.35 µM and 1.68 µM in assay [7]. Besides, the GI50 was 1.8 µM and 0.444 µM in [8]; 2.66 µM and 0.796 µM in assay [9]; 1.74 µM and 0.251 µM in [10]. In addition, the TGI in assay [1] is 3.63 µM and 1.18 µM; in assay [2], 34.7 µM and 7.32 µM; in assay [3] it was 3.34 µM and 1.9 µM; in assay [4], 4.29 µM and 1.24 µM; in [5] it was 3.62 µM and 0.951 µM; in [6], 14.3 µM and 5.74 µM. Also, the total growth inhibition concentration (TGI) in assay [7] is 21.8 µM and 9.04 µM; in assay [8] it was 3.25 µM and 1.28 µM; in [9], 8.34 µM and 3.8 µM; in [10], 3.2 µM and 0.942 µM.

In the case of `N#Cc1ccc(C(=O)c2cnn(-c3ccc(F)cc3)c2N)cc1`, the GI50 in [1] is greater than 25 µM; in [2], greater than 25 µM; in assay [3], greater than 25 µM; in assay [4], greater than 25 µM; in assay [5] it was greater than 23.3 µM; in [6], greater than 25 µM. Further, the GI50 in [7] is greater than 25 µM; in assay [8] it was greater than 25 µM; in assay [9] it was greater than 25 µM; in assay [10] it was greater than 23.1 µM. The TGI in [1], in [2], in assay [3], in assay [4], in assay [5] and in assay [6] was greater than 25 µM each time. Moreover, the TGI in assay [7], in assay [8], in assay [9] and in [10] was greater than 25 µM throughout.

Consider `CC[C@H](C)[C@H](NC(=O)[C@H]1CCCCN1C)C(=O)N(C)[C@H](C[C@@H](OC(C)=O)c1nc(C(=O)NC23C4C5C2C2C3C4C52C(=O)OC)cs1)C(C)C` (stereo partly specified), for which the GI50 in [1] is 0.00359 µM and 0.0025 µM; in assay [2], 0.00879 µM and 0.0025 µM; in assay [3] it was 0.00336 µM and 0.0025 µM; in assay [4], 0.00288 µM and 0.0025 µM; in [5], 0.00429 µM and 0.0025 µM; in [6], 0.0256 µM and 0.0222 µM. The GI50 in [7] is 0.0676 µM; in assay [8], 0.000489 µM and < 0.0025 µM; in assay [9], 0.00424 µM; in assay [10], 0.00424 µM and 0.0025 µM. Further, the TGI in [1] is greater than 25 µM; in assay [2], greater than 25 µM; in assay [3] it was 14.3 µM; in [4] it was greater than 25 µM; in assay [5], greater than 25 µM; in assay [6], 1.15 µM. The compound further yielded a TGI in [10] greater than 25 µM.

As for `O=[N+]([O-])c1cc(C(F)(F)F)cc2n[se]nc12`, the TGI in assay [1] was determined as 4.85 µM; in assay [2], 27 µM; in assay [3] it was 10.2 µM; in [4], 3.57 µM; in [5], 5.84 µM; in assay [6], 46.8 µM. Further, the TGI in [7] was 5.11 µM; in assay [8], 3.33 µM; in assay [9], 8.47 µM; in assay [10], 29.5 µM.

The values are drawn from PubChem BioAssay (NCI).
